From patent US12414952B2 (Merck Sharp & Dohme LLC, priority 2018, dated 2025)

Target: human A2a adenosine receptor (Homo sapiens (Human), UniProt P29274)
Assay: A2a binding affinity using radioligand binding, Method (A)
Settings: Method (A): [3H]SCH58261 filtration binding
Source text: The A2a receptor affinity binding assay measured the amount of binding of a tritiated ligand with high affinity for the A2a adenosine receptor to membranes made from HEK293 or CHO cells recombinantly expressing the human A2a adenosine receptor, in the presence of varying concentrations of a compound of the invention. The data were generated using either filtration binding or a homogenous scintillation proximity assay (SPA).
Method (A): Measurement of A2a Binding Affinity Using Radioligand Binding
148 μL (5 μg/mL) membranes (Perkin Elmer, Cat. No. RBHA2aM400UA) and 2 μL compounds of the invention to be tested (test compound) were transferred to individual wells of a 96-well polypropylene assay plate and incubated for 15 to 30 min at room temperature. [^3H] SCH58261 ((7-(2-phenylethyl)-5-amino-2-(2-furyl)-pyrazolo-[4,3-e]-1,2,4-triazolo[1,5-c]pyrimidine)) was diluted in assay buffer (50 mM Tris pH 7.4, 10 mM MgCl2, 0.005% Tween20) to a concentration of 4 nM and 50 μL transferred to each well of the assay plate. […] The assay plate was incubated at room temperature for 60 min with agitation. […] Filtering was achieved by aspirating the contents of the assay plate for 5 sec, then washing and aspirating the contents three times with ice-cooled wash buffer (50 mM Tris-HCl pH 7.4, 150 mM NaCl) and allowing the vacuum manifold to dry the plate for […]. The filter plate was incubated for at least 1 h at 55° C. and allowed to dry. The bottom of the filter plate was sealed with backing tape. […] The plate was incubated for at least 20 min, and then the amount of radioactivity remaining in each well was determined using a TopCount® (Perkin Elmer) scintillation counter. After normalization to total and non-specific binding, the percent effect at each compound concentration was calculated. The plot of percent effect versus the log of compound concentration was analyzed electronically using a 4-parameter logistic fit based on the Levenberg-Marquardt algorithm to generate IC50 values.

Chain of human A2a adenosine receptor (P29274 whole entry): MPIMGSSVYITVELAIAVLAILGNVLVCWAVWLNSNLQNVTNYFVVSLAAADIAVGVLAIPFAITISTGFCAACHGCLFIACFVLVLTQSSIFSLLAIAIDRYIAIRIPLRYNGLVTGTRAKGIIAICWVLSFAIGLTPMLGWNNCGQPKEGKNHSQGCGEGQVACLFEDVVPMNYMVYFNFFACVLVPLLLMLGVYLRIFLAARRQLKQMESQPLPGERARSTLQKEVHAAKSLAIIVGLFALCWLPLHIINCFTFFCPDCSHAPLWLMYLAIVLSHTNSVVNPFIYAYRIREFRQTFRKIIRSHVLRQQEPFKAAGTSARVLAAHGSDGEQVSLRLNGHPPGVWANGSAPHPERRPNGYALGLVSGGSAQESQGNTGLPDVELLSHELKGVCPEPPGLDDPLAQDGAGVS

| IC50 [nM] | SMILES |
| --- | --- |
| 493 | Nc1nc(-c2ccccc2)cc2nc(CCO)nn12 [Example 14.3, 2-(5-amino-7-phenyl-[1,2,4]triazolo[1,5-c]pyrimidin-2-yl)ethan-1-ol] |
| 0.6 | Cc1c(-c2ncco2)nc(N)n2nc(CCN3CCc4c(ncn4C4CCCC4)C3)nc12 [Example 17.18, 2-(2-(1-cyclopentyl-1,4,6,7-tetrahydro-5H-imidazo[4,5-c]pyridin-5-yl)ethyl)-8-methyl-7-(oxazol-2-yl)-[1,2,4]triazolo[1,5-c]pyrimidin-5-amine] |
| 3 | Cc1c(-c2ncco2)nc(N)n2nc(CCN3CCc4ncn(C5CCCC5)c4C3)nc12 [Example 17.19, 2-(2-(3-cyclopentyl-3,4,6,7-tetrahydro-5H-imidazo[4,5-c]pyridin-5-yl)ethyl)-8-methyl-7-(oxazol-2-yl)-[1,2,4]triazolo[1,5-c]pyrimidin-5-amine] |
| 90.9 | Nc1nc(-c2ncco2)cc2nc(CCN3CC(F)(F)C3)nn12 [Example 17.20, 2-(2-(3,3-difluoroazetidin-1-yl)ethyl)-7-(oxazol-2-yl)-[1,2,4]triazolo[1,5-c]pyrimidin-5-amine] |
| 450 | Nc1nc(-c2ncco2)cc2nc(CCN3CCc4[nH]ncc4C3)nn12 [Example 17.21, 7-(oxazol-2-yl)-2-(2-(1,4,6,7-tetrahydro-5H-pyrazolo[4,3-c]pyridin-5-yl)ethyl)-[1,2,4]triazolo[1,5-c]pyrimidin-5-amine] |
| 78.9 | Cn1nc(C(F)(F)F)c2c1CCN(CCc1nc3cc(-c4ncco4)nc(N)n3n1)C2 [Example 17.22, 2-(2-(1-methyl-3-(trifluoromethyl)-1,4,6,7-tetrahydro-5H-pyrazolo[4,3-c]pyridin-5-yl)ethyl)-7-(oxazol-2-yl)-[1,2,4]triazolo[1,5-c]pyrimidin-5-amine] |
| 122 | Nc1nc(-c2ncco2)cc2nc(CCN3CCN(CC4CC4)C(=O)C3)nn12 [Example 17.23, 4-(2-(5-amino-7-(oxazol-2-yl)-[1,2,4]triazolo[1,5-c]pyrimidin-2-yl)ethyl)-1-(cyclopropylmethyl)piperazin-2-one] |
| 319 | Cc1cc2n(n1)CCN(CCc1nc3cc(-c4ncco4)nc(N)n3n1)C2 [Example 17.24, 2-(2-(2-methyl-6,7-dihydropyrazolo[1,5-a]pyrazin-5(4H)-yl)ethyl)-7-(oxazol-2-yl)-[1,2,4]triazolo[1,5-c]pyrimidin-5-amine] |
| 402 | Nc1nc(-c2ncco2)cc2nc(CCN3CCc4nccnc4C3)nn12 [Example 17.25, 2-(2-(7,8-dihydropyrido[3,4-b]pyrazin-6(5H)-yl)ethyl)-7-(oxazol-2-yl)-[1,2,4]triazolo[1,5-c]pyrimidin-5-amine] |
| 629 | CC(C)c1ncc2n1CCN(CCc1nc3c(N)nc(-c4ncco4)cn3n1)C2 [Example 17.26, 2-(2-(3-isopropyl-5,6-dihydroimidazo[1,5-a]pyrazin-7(8H)-yl)ethyl)-6-(oxazol-2-yl)-[1,2,4]triazolo[1,5-a]pyrazin-8-amine] |
| 39.9 | Nc1nc(-c2ccccc2)cc2nc(CCN3CCn4c(cnc4C4CCC4)C3)nn12 [Example 17.27, 2-(2-(3-cyclobutyl-5,6-dihydroimidazo[1,5-a]pyrazin-7(8H)-yl)ethyl)-7-phenyl-[1,2,4]triazolo[1,5-c]pyrimidin-5-amine] |
| 0.5 | Cc1c(-c2ncco2)nc(N)n2nc(Cc3ccccc3)nc12 [Example 19.3, 2-benzyl-8-methyl-7-(oxazol-2-yl)-[1,2,4]triazolo[1,5-c]pyrimidin-5-amine] |
| 0.5 | Cc1c(-c2ncco2)nc(N)c2nc(Cc3ccccc3)nn12 [Example 20.2, 2-benzyl-5-methyl-6-(oxazol-2-yl)-[1,2,4]triazolo[1,5-a]pyrazin-8-amine] |
| 40 | Cc1c(-c2ccc(F)cc2)nc(N)c2nc(Cc3ccccc3)nn12 [Example 20.3, 2-benzyl-6-(4-fluorophenyl)-5-methyl-[1,2,4]triazolo[1,5-a]pyrazin-8-amine] |
| 3.2 | Nc1nc(-c2ncco2)c(C2CC2)n2nc(Cc3ccccc3)nc12 [Example 20.4, 2-benzyl-5-cyclopropyl-6-(oxazol-2-yl)-[1,2,4]triazolo[1,5-a]pyrazin-8-amine] |
| 21.5 | Cc1c(-c2ncco2)nc(N)n2nc(Cn3cc(CCC(C)(C)O)cn3)nc12 [Example 21.3, 4-(1-((5-amino-8-methyl-7-(oxazol-2-yl)-[1,2,4]triazolo[1,5-c]pyrimidin-2-yl)methyl)-1H-pyrazol-4-yl)-2-methylbutan-2-ol] |

More lines, now with the values behind:

| SMILES | IC50 [nM] |
| --- | --- |
| Nc1nc(-c2ncco2)cn2nc(Cc3ccccc3)nc12 [Example 1.2, 2-benzyl-6-(oxazol-2-yl)-[1,2,4]triazolo[1,5-a]pyrazin-8-amine] | 3.1 |
| Cc1c(-c2nccs2)nc(N)c2nc(Cc3ccccc3)nn12 [Example 1.3] | 1.3 |
| Cc1c(-c2ncccn2)nc(N)c2nc(Cc3ccccc3)nn12 [Example 1.4] | 3.6 |
| Cc1nc2c(N)nc(-c3ncco3)cn2n1 [Example 1.5] | 909 |
| Cc1nc2c(o1)CN(CCc1nc3c(C)c(-c4ncco4)nc(N)n3n1)C2 [Example 1.7] | 7.4 |
| Cc1nc2cc(-c3ncco3)nc(N)n2n1 [Example 1.9] | 534 |
| Nc1nc(-c2ccc(F)cc2)cn2nc(Cc3ccccc3)nc12 [Example 2.3, 2-benzyl-6-(4-fluorophenyl)-[1,2,4]triazolo[1,5-a]pyrazin-8-amine] | 2.5 |
| Nc1nc(-c2ccccc2)cn2nc(Cc3ccccc3)nc12 [Example 2.4] | 1.6 |
| Cc1nc2c(N)nc(-c3ccccc3)cn2n1 [Example 2.5] | 112 |
| Cc1nc2c(N)nc(-c3ccc(F)cc3)cn2n1 [Example 2.6] | 523 |
| Nc1nc(-c2cc(F)ccc2F)cn2nc(Cc3ccccc3)nc12 [Example 2.7] | 2.2 |
| Cc1c(-c2ccc(F)cc2)nc(N)n2nc(CCN3CCn4c(cnc4C(C)C)C3)nc12 [Example 2.17] | 124 |
| Cc1nc2c(o1)CN(CCc1nc3c(C)c(-c4cnco4)nc(N)n3n1)C2 [Example 2.25] | 26.7 |
| Cc1c(-c2cccc(F)c2)nc(N)c2nc(Cc3ccccc3)nn12 [Example 3.3, 2-benzyl-6-(3-fluorophenyl)-5-methyl-[1,2,4]triazolo[1,5-a]pyrazin-8-amine] | 1.1 |
| Cc1c(-c2cc(F)ccc2F)nc(N)c2nc(Cc3ccccc3)nn12 [Example 3.4] | 1.1 |
| Cc1c(-c2ccccc2)nc(N)c2nc(Cc3ccccc3)nn12 [Example 3.5] | 2.2 |
| Cc1c(-c2ccccc2F)nc(N)c2nc(Cc3ccccc3)nn12 [Example 3.6] | 6.4 |
| COc1ccc(-c2nc(N)c3nc(Cc4ccccc4)nn3c2C)cc1Cl [Example 3.7] | 11 |

| SMILES | IC50 [nM] |
| --- | --- |
| COc1ccc(-c2nc(N)c3nc(Cc4ccccc4)nn3c2C)cc1F [Example 3.8] | 20.6 |
| Cc1c(-c2cncc(F)c2)nc(N)c2nc(Cc3ccccc3)nn12 [Example 3.9] | 24.5 |
| Cc1c(-c2ccc(F)c(F)c2)nc(N)c2nc(Cc3ccccc3)nn12 [Example 3.10] | 27.9 |
| COc1cccc(-c2nc(N)c3nc(Cc4ccccc4)nn3c2C)c1F [Example 3.11] | 28.5 |
| Cc1c(-c2ccc(Cl)c(Cl)c2)nc(N)c2nc(Cc3ccccc3)nn12 [Example 3.12] | 38 |
| COc1ncc(-c2nc(N)c3nc(Cc4ccccc4)nn3c2C)cc1F [Example 3.13] | 40 |
| COc1ccc(-c2nc(N)c3nc(Cc4ccccc4)nn3c2C)c(F)c1 [Example 3.14] | 40.6 |
| Cc1cc(-c2nc(N)c3nc(Cc4ccccc4)nn3c2C)ccn1 [Example 3.15] | 54.8 |
| Cc1c(-c2ccc(Cl)c(F)c2)nc(N)c2nc(Cc3ccccc3)nn12 [Example 3.16] | 73.9 |
| Cc1c(-c2ccc(F)cc2F)nc(N)c2nc(Cc3ccccc3)nn12 [Example 3.17] | 82.2 |
| Cc1c(-c2ccc(Cl)cc2)nc(N)c2nc(Cc3ccccc3)nn12 [Example 3.18] | 84.4 |
| Cc1c(-c2ccc(OC(F)F)cc2)nc(N)c2nc(Cc3ccccc3)nn12 [Example 3.19] | 121 |
| Cc1c(-c2cccc(C(F)(F)F)n2)nc(N)c2nc(Cc3ccccc3)nn12 [Example 3.20] | 157 |
| Cc1c(-c2ccc(Cl)cc2F)nc(N)c2nc(Cc3ccccc3)nn12 [Example 3.21] | 168 |
| Cc1c(-c2cnn(C(F)(F)F)c2)nc(N)c2nc(Cc3ccccc3)nn12 [Example 3.44] | 490 |
| Cc1c(-c2cc(C(F)(F)F)nn2C)nc(N)c2nc(Cc3ccccc3)nn12 [Example 3.45] | 17.8 |
| Cc1c(-c2ncco2)nc(N)c2nc(Cc3ccccc3C(F)(F)F)nn12 [Example 7.3, 5-methyl-6-(oxazol-2-yl)-2-(2-(trifluoromethyl)benzyl)-[1,2,4]triazolo[1,5-a]pyrazin-8-amine] | 0.5 |
| Cc1c(-c2cc(F)ccc2F)nc(N)c2nc(Cc3ccc(C(F)(F)F)cc3)nn12 [Example 7.4, 6-(2,5-difluorophenyl)-5-methyl-2-(4-(trifluoromethyl)benzyl)-[1,2,4]triazolo[1,5-a]pyrazin-8-amine] | 15.3 |
